Test results: US6274715A, “Tricyclic erythromycin derivatives” (priority 1997, dated 2001)
In brackets after ≈: the same amount, converted by molar mass.

Tests used:
Type in all cases: cell-based
[1] = test system: ENTEROBACTER AEROGENES ATCC 13048; test: In vitro antibacterial activity, MIC, BHI agar dilution; settings: E. aerogenes ATCC 13048, unit assumed
[2] = test system: STAPHYLOCOCCUS AUREUS A-5278; test: as above; settings: S. aureus A-5278, unit assumed
[3] = test system: STAPHYLOCOCCUS AUREUS ATCC 6538P; test: as above; settings: S. aureus ATCC 6538P, 35-37° C., 20 to 24 hours, unit assumed
[4] = test system: STAPHYLOCOCCUS AUREUS NCTC10649M; test: as above; settings: S. aureus NCTC10649M, unit assumed
[5] = test system: ESCHERICHIA COLI JUHL; settings: E. coli JUHL; BHI agar; unit assumed
[6] = test system: PSEUDOMONAS AERUGINOSA K799/WT; test: In vitro antibacterial activity, MIC, BHI agar dilution; settings: P. aeruginosa K799/WT, unit assumed
[7] = test system: STAPHYLOCOCCUS AUREUS CMX 553; test: as above; settings: S. aureus CMX 553, unit assumed
[8] = test system: STAPHYLOCOCCUS AUREUS 1775; test: as above; settings: S. aureus 1775, unit assumed
[9] = test system: STREPTOCOCCUS PYOGENES EES61; test: as above; settings: S. pyogenes EES61, unit assumed
[10] = test system: STAPHYLOCOCCUS AUREUS CMX 642A; test: as above; settings: S. aureus CMX 642A, unit assumed
[11] = test system: ESCHERICHIA COLI KNK 437; settings: E. coli KNK 437; BHI agar; unit assumed
[12] = test system: ESCHERICHIA COLI SS; test: In vitro antibacterial activity, MIC, BHI agar dilution; settings: E. coli SS, unit assumed
[13] = test system: CANDIDA ALBICANS CCH 442; test: as above; settings: C. albicans CCH 442, unit assumed
[14] = test system: MYCOBACTERIUM SMEGMATIS ATCC 114; test: as above; settings: M. smegmatis ATCC 114, unit assumed
[15] = test system: PSEUDOMONAS AERUGINOSA K799/61; test: as above; settings: P. aeruginosa K799/61, unit assumed
[16] = test system: PSEUDOMONAS AERUGINOSA 5007; test: as above; settings: P. aeruginosa 5007, unit assumed
[17] = test system: H. Influenza Dill AMP R; test: In vitro antibacterial activity against H. Influenza Dill AMP R, MIC; settings: separate assay, unit assumed
Procedure, shortened: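 Agar dilution in Brain Heart Infusion agar, twelve successive compound dilutions, inoculated by Steers replicator with 1:100 (1:10 for slow growers) culture dilutions. Incubation 35-37° C. for 20 to 24 hours; MIC is lowest concentration giving no growth, slight haze or sparse colonies versus drug-free control.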

[18] = test system: ACINETOBACTER CALCOACETICUS CMX 669; test: In vitro antibacterial activity, MIC, BHI agar dilution; settings: A. calcoaceticus CMX 669, unit assumed
[19] = test system: ESCHERICHIA COLI H560; test: as above; settings: E. coli H560, unit assumed
[20] = test system: STREPTOCOCCUS BOVIS A-5169; test: as above; settings: S. bovis A-5169, unit assumed
[21] = test system: PSEUDOMONAS AERUGINOSA BMH10; test: as above; settings: P. aeruginosa BMH10, unit assumed
[22] = test system: ESCHERICHIA COLI DC-2; test: as above; settings: E. coli DC-2, unit assumed
[23] = test system: STREPTOCOCCUS PYOGENES 930; test: as above; settings: S. pyogenes 930, unit assumed
[24] = test system: STAPHYLOCOCCUS AUREUS A5177; test: as above; settings: S. aureus A5177, unit assumed
[25] = test system: M[…] ATCC 4698; test: as above; settings: M. luteus ATCC 4698, unit assumed
Procedure, shortened: (§1)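 MIC was read visually as the lowest drug concentration showing no growth, a slight haze or sparsely isolated colonies relative to a compound-free BHI plate. Plates held serial aqueous dilutions in BHI agar, were spot-inoculated with 1:100 (or 1:10) culture dilutions and incubated 20 to 24 hours at 35-37° C.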

[26] = test system: STR[…] 508; test: as above; settings: S. agalactiae CMX 508, unit assumed
Procedure, shortened: as §1

[27] = test system: EN[…] ATCC 8043; test: as above; settings: E. faecium ATCC 8043, unit assumed
Procedure, shortened: as §1

[28] = test system: M[…] ATCC 9341; test: as above; settings: M. luteus ATCC 9341, unit assumed
Procedure, shortened: as §1

[29] = test system: PSEUDOMONAS AERUGINOSA DPHD-5263; test: as above; settings: P. aeruginosa DPHD-5263, unit assumed
[30] = test system: PSEUDOMONAS AERUGINOSA DPHD-2862; test: as above; settings: P. aeruginosa DPHD-2862, unit assumed
[31] = test system: KLEBSIELLA PNEUMONIAE ATCC 8045; test: as above; settings: K. pneumoniae ATCC 8045, unit assumed
[32] = test system: PROVIDENCIA STUARTII CMX 640; settings: P. stuartii CMX 640; BHI agar; unit assumed
[33] = test system: STAPHYLOCOCCUS EPIDERMIDIS 3519; settings: S. epidermidis 3519; BHI agar; unit assumed
[34] = test system: PSEUDOMONAS CEPACIA 296I; test: In vitro antibacterial activity, MIC, BHI agar dilution; settings: P. cepacia 296I, unit assumed
[35] = test system: STREPTOCOCCUS PYOGENES PIU 2548; test: as above; settings: S. pyogenes PIU 2548, unit assumed

Row | SMILES | MIC [1] [µg/mL] | MIC [2] [µg/mL] | MIC [3] [µg/mL] | MIC [4] [µg/mL] | MIC [5] [µg/mL] | MIC [6] [µg/mL] | MIC [7] [µg/mL] | MIC [8] [µg/mL] | MIC [9] [µg/mL] | MIC [10] [µg/mL] | MIC [11] [µg/mL] | MIC [12] [µg/mL] | MIC [13] [µg/mL] | MIC [14] [µg/mL] | MIC [15] [µg/mL] | MIC [16] [µg/mL] | MIC [17] [µg/mL] | MIC [18] [µg/mL] | MIC [19] [µg/mL] | MIC [20] [µg/mL] | also measured
1 | CCC1OC(=O)C(C)C(=O)C(C)C(OC2OC(C)CC(N(C)C)C2O)C(C)(OC)CC(C)C2=NC(COCSC)CN3C(=O)OC1(C)C3C2C (stereo not drawn) [Example 99] | > 100 | > 100 | 0.39 (≈ 0.536 µM) | 0.39 (≈ 0.536 µM) | > 100 | > 100 | 0.39 (≈ 0.536 µM) | > 100 | 0.05 (≈ 0.0687 µM) | 0.39 (≈ 0.536 µM) | > 100 | 0.78 (≈ 1.07 µM) | > 100 | 3.1 (≈ 4.26 µM) | 6.2 (≈ 8.52 µM) | > 100 | 32 (≈ 44 µM) | 100 (≈ 137 µM) | > 100 | 0.05 (≈ 0.0687 µM) | MIC [21]: > 100 µg/mL; MIC [22]: > 100 µg/mL; MIC [23]: > 100 µg/mL; MIC [24]: 0.39 µg/mL (≈ 0.536 µM); MIC [25]: 0.39 µg/mL (≈ 0.536 µM); MIC [26]: 0.05 µg/mL (≈ 0.0687 µM); MIC [27]: 0.1 µg/mL (≈ 0.137 µM); MIC [28]: 0.1 µg/mL (≈ 0.137 µM); MIC [29]: > 100 µg/mL; MIC [30]: > 100 µg/mL; MIC [31]: > 100 µg/mL; MIC [32]: > 100 µg/mL; MIC [33]: 0.39 µg/mL (≈ 0.536 µM); MIC [34]: > 100 µg/mL; MIC [35]: 0.39 µg/mL (≈ 0.536 µM)
2 | CC[C@H]1OC(=O)[C@H](C)C(=O)[C@H](C)[C@@H](O[C@@H]2O[C@H](C)C[C@H](N(C)C)[C@H]2O)[C@](C)(OC)C[C@@H](C)C2=NC3CN(S(=O)(=O)Cc4ccccc4[N+](=O)[O-])CC3N3C(=O)O[C@@]1(C)[C@H]3[C@H]2C (stereo partly drawn) [Example 123] | > 100 | > 100 | 1.56 (≈ 1.78 µM) | 3.1 (≈ 3.53 µM) | > 100 | > 100 | 3.1 (≈ 3.53 µM) | > 100 | 0.1 (≈ 0.114 µM) | 3.1 (≈ 3.53 µM) | > 100 | 6.2 (≈ 7.06 µM) | > 100 | 12.5 (≈ 14.2 µM) | 25 (≈ 28.5 µM) | > 100 | 128 (≈ 146 µM) | > 100 | > 100 | 0.1 (≈ 0.114 µM) | MIC [21]: > 100 µg/mL; MIC [22]: > 100 µg/mL; MIC [23]: > 100 µg/mL; MIC [24]: 1.56 µg/mL (≈ 1.78 µM); MIC [25]: 1.56 µg/mL (≈ 1.78 µM); MIC [26]: 0.1 µg/mL (≈ 0.114 µM); MIC [27]: 0.39 µg/mL (≈ 0.444 µM); MIC [28]: 0.39 µg/mL (≈ 0.444 µM); MIC [29]: > 100 µg/mL; MIC [30]: > 100 µg/mL; MIC [31]: > 100 µg/mL; MIC [32]: > 100 µg/mL; MIC [33]: 3.1 µg/mL (≈ 3.53 µM); MIC [34]: > 100 µg/mL; MIC [35]: 3.1 µg/mL (≈ 3.53 µM)
3 | CCC1OC(=O)C(C)C(=O)C(C)C(OC2OC(C)CC(N(C)C)C2O)C(C)(OC)CC(C)C2=NCC(CSc3ccccc3)(CN(C)C)N3C(=O)OC1(C)C3C2C (stereo not drawn) [Example 135] | > 100 | > 100 | 1.56 (≈ 1.91 µM) | 3.1 (≈ 3.79 µM) | > 100 | > 100 | 3.1 (≈ 3.79 µM) | > 100 | 0.2 (≈ 0.245 µM) | 3.1 (≈ 3.79 µM) | > 100 | 1.56 (≈ 1.91 µM) | > 100 | 1.56 (≈ 1.91 µM) | 6.2 (≈ 7.59 µM) | > 100 | 64 (≈ 78.3 µM) | > 100 | > 100 | 0.1 (≈ 0.122 µM) | MIC [21]: > 100 µg/mL; MIC [22]: > 100 µg/mL; MIC [23]: > 100 µg/mL; MIC [24]: 1.56 µg/mL (≈ 1.91 µM); MIC [25]: 1.56 µg/mL (≈ 1.91 µM); MIC [26]: 0.2 µg/mL (≈ 0.245 µM); MIC [27]: 0.39 µg/mL (≈ 0.477 µM); MIC [28]: 0.2 µg/mL (≈ 0.245 µM); MIC [29]: > 100 µg/mL; MIC [30]: > 100 µg/mL; MIC [31]: > 100 µg/mL; MIC [32]: > 100 µg/mL; MIC [33]: 3.1 µg/mL (≈ 3.79 µM); MIC [34]: > 100 µg/mL; MIC [35]: 1.56 µg/mL (≈ 1.91 µM)
